Assay results from US20220204476A1, “RNA VIRUS INHIBITOR COMPOUNDS AND USES THEREOF” (The Governors of the University of Alberta, priority 2020, published 2022).
Where two headings read alike, the source gives them in different places.

Assays:
SARS-CoV-2 = SARS-CoV-2 in vitro plaque reduction assay in Vero E6 cells; format: cell-based; settings: Severe acute respiratory syndrome coronavirus 2, Vero C1008, MOI 0.0001 pfu/cell, plaques counted after 48 h, >5 μM = did not reduce plaque numbers by half at 10 μM, read-out: SARS-CoV-2 Antiviral EC50
SARS-CoV-2 3CLP = SARS-CoV-2 3CLP (Severe acute respiratory syndrome coronavirus 2, UniProt P0DTD1); assay: SARS-CoV-2 3CLP inhibition, FRET-based cleavage assay; format: biochemical; settings: 100 μM substrate, 37° C., 10 min incubation, pH 7.8
[1] = 80 nM SARS-CoV-2 3CLP, read-out: 3CL Protease IC50
[2] = 3CL Protease IC50, 80 nM SARS-CoV-2 3CLP

Compound: CC(C)C[C@H](NCC1CCCCC1)C(=O)N[C@H](C#N)C[C@@H]1CCCNC1=O [Compound 95, N-{(1S)-1-cyano-2-[(3S)-2-oxopiperidin-3-yl]ethyl}-N^2-(cyclohexylmethyl)-L-leucinamide]
- EC50 (SARS-CoV-2): > 5000 nM
- IC50 (SARS-CoV-2 3CLP; [1]): 97000 nM

Compound: Cc1ccc(C(=O)N[C@@H](CC(C)C)C(=O)N[C@H](C#N)C[C@@H]2CCCNC2=O)cn1 [Compound 81, N-{(1S)-1-cyano-2-[(3S)-2-oxopiperidin-3-yl]ethyl}-N^2-(6-methylpyridine-3-carbonyl)-L-leucinamide]
- EC50 (SARS-CoV-2): > 5000 nM
- IC50 (SARS-CoV-2 3CLP; [1]): 620 nM

Compound: CC(C)C[C@H](NCC1CC1)C(=O)N[C@H](C#N)C[C@@H]1CCCNC1=O [Compound 77, N-{(1S)-1-cyano-2-[(3S)-2-oxopiperidin-3-yl]ethyl}-N^2-(cyclopropylmethyl)-L-leucinamide]
- EC50 (SARS-CoV-2): > 5000 nM
- IC50 (SARS-CoV-2 3CLP; [1]): 17000 nM

Compound: Cc1cc(C)c(C(=O)OCC(=O)[C@H](C[C@@H]2CCCNC2=O)NC(=O)[C@H](CC(C)(C)C)NC(=O)[C@H]2CCCO2)c(C)n1 [Compound 87, (3S)-3-({4-methyl-N-[(2R)-oxolane-2-carbonyl]-L-leucyl}amino)-2-oxo-4-[(3S)-2-oxopiperidin-3-yl]butyl 2,4,6-trimethylpyridine-3-carboxylate]
- EC50 (SARS-CoV-2): 1900 nM
- IC50 (SARS-CoV-2 3CLP; [1]): 200 nM

Compound: COc1cccc2[nH]c(C(=O)N[C@@H](CC(C)C)C(=O)N[C@@H](C[C@@H]3CCNC3=O)C(=O)COC(=O)C(C)(C)C(F)(F)F)cc12 [Compound 27, (3S)-3-{[N-(4-methoxy-1H-indole-2-carbonyl)-L-leucyl]amino}-2-oxo-4-[(3S)-2-oxopyrrolidin-3-yl]butyl 3,3,3-trifluoro-2,2-dimethylpropanoate]
- EC50 (SARS-CoV-2): > 5000 nM
- IC50 (SARS-CoV-2 3CLP; [1]): 29 nM

Compound: COc1nccc2c1cc(C(=O)N[C@@H](CC(C)(C)C)C(=O)N[C@H](C#N)C[C@@H]1CCCNC1=O)n2C [Compound 100, N-[(2S)-1-({(1S)-1-cyano-2-[(3S)-2-oxopiperidin-3-yl]ethyl}amino)-4,4-dimethyl-1-oxopentan-2-yl]-4-methoxy-1-methyl-1H-pyrrolo[3,2-c]pyridine-2-carboxamide]
- EC50 (SARS-CoV-2): > 5000 nM
- IC50 (SARS-CoV-2 3CLP; [1]): 220 nM

Compound: COc1cccc2[nH]c(C(=O)N[C@@H](CC(C)C)C(=O)N[C@@H](C[C@@H]3CCCNC3=O)C(=O)COC(=O)c3ccccc3)cc12 [Compound 2, (3S)-3-{[N-(4-methoxy-1H-indole-2-carbonyl)-L-leucyl]amino}-2-oxo-4-[(3S)-2-oxopiperidin-3-yl]butyl benzoate]
- EC50 (SARS-CoV-2): > 5000 nM
- IC50 (SARS-CoV-2 3CLP; [1]): 64 nM

Compound: COc1cccc2[nH]c(C(=O)N[C@@H](CC(C)C)C(=O)N[C@@H](C[C@@H]3CCCNC3=O)C(=O)COC(=O)C(C)(C)C#N)cc12 [Compound 14, (3S)-3-{[N-(4-methoxy-1H-indole-2-carbonyl)-L-leucyl]amino}-2-oxo-4-[(3S)-2-oxopiperidin-3-yl]butyl 2-cyano-2-methylpropanoate]
- EC50 (SARS-CoV-2): > 5000 nM
- IC50 (SARS-CoV-2 3CLP; [1]): 22 nM

Compound: COc1cccc2[nH]c(C(=O)N[C@@H](CC(C)C)C(=O)N[C@@H](C[C@@H]3CCCNC3=O)C(=O)COC(=O)C3(C(F)(F)F)CC3)cc12 [Compound 15, (3S)-3-{[N-(4-methoxy-1H-indole-2-carbonyl)-L-leucyl]amino}-2-oxo-4-[(3S)-2-oxopiperidin-3-yl]butyl 1-(trifluoromethyl)cyclopropane-1-carboxylate]
- EC50 (SARS-CoV-2): > 5000 nM
- IC50 (SARS-CoV-2 3CLP; [1]): 41 nM

Compound: COc1cccc2oc(C(=O)N[C@@H](CC(C)(C)C)C(=O)N[C@H](C#N)C[C@@H]3CCCNC3=O)cc12 [Compound 93, N-[(2S)-1-({(1S)-1-cyano-2-[(3S)-2-oxopiperidin-3-yl]ethyl}amino)-4,4-dimethyl-1-oxopentan-2-yl]-4-methoxy-1-benzofuran-2-carboxamide]
- EC50 (SARS-CoV-2): > 5000 nM
- IC50 (SARS-CoV-2 3CLP; [1]): 240 nM

Compound: CC(C)C[C@H](NC[C@@H]1CCCO1)C(=O)N[C@H](C#N)C[C@@H]1CCCNC1=O [Compound 92, N-{(1S)-1-cyano-2-[(3S)-2-oxopiperidin-3-yl]ethyl}-N^2-{[(2S)-oxolan-2-yl]methyl}-L-leucinamide]
- EC50 (SARS-CoV-2): > 5000 nM
- IC50 (SARS-CoV-2 3CLP; [1]): 104000 nM

Compound: CC(C)C[C@H](NC(=O)[C@@H]1C[C@H]1c1ccccc1)C(=O)N[C@H](C#N)C[C@@H]1CCCNC1=O [Compound 106, N-{(1S)-1-cyano-2-[(3S)-2-oxopiperidin-3-yl]ethyl}-N^2-[(1R,2R)-2-phenylcyclopropane-1-carbonyl]-L-leucinamide]
- EC50 (SARS-CoV-2): > 5000 nM
- IC50 (SARS-CoV-2 3CLP; [1]): 69 nM

Compound: CC(C)C[C@H](NCc1ccc[nH]c1=O)C(=O)N[C@H](C#N)C[C@@H]1CCCNC1=O [Compound 78, N-{(1S)-1-cyano-2-[(3S)-2-oxopiperidin-3-yl]ethyl}-N^2-[(2-oxo-1,2-dihydropyridin-3-yl)methyl]-L-leucinamide]
- EC50 (SARS-CoV-2): > 5000 nM
- IC50 (SARS-CoV-2 3CLP; [1]): 47000 nM

Compound: CC(C)C[C@H](NC(=O)C1CCCC1)C(=O)N[C@@H](C[C@@H]1CCCNC1=O)C(=O)COC(=O)c1cccnc1 [Compound 17, (3S)-3-{[N-(cyclopentanecarbonyl)-L-leucyl]amino}-2-oxo-4-[(3S)-2-oxopiperidin-3-yl]butyl pyridine-3-carboxylate]
- EC50 (SARS-CoV-2): > 5000 nM
- IC50 (SARS-CoV-2 3CLP; [1]): 4990 nM

Compound: COc1cccc2[nH]c(C(=O)N[C@@H](CC(C)C)C(=O)N[C@@H](C[C@@H]3CCNC3=O)C(=O)COC(=O)c3c(C(F)(F)F)cccc3C(F)(F)F)cc12 [Compound 25, (3S)-3-{[N-(4-methoxy-1H-indole-2-carbonyl)-L-leucyl]amino}-2-oxo-4-[(3S)-2-oxopyrrolidin-3-yl]butyl 2,6-bis(trifluoromethyl)benzoate]
- EC50 (SARS-CoV-2): < 250 nM
- IC50 (SARS-CoV-2 3CLP; [1]): 18 nM

Compound: CC(C)(C)C[C@H](NC(=O)[C@H]1Cc2ccccc2N1)C(=O)N[C@H](C#N)C[C@@H]1CCCNC1=O [Compound 102, (2R)—N-[(2S)-1-({(1S)-1-cyano-2-[(3S)-2-oxopiperidin-3-yl]ethyl}amino)-4,4-dimethyl-1-oxopentan-2-yl]-2,3-dihydro-1H-indole-2-carboxamide]
- EC50 (SARS-CoV-2): > 5000 nM
- IC50 (SARS-CoV-2 3CLP; [1]): 140 nM

Compound: CC(C)(C)C[C@H](NC(=O)[C@@H]1CCCN1C(=O)OCc1ccccc1)C(=O)N[C@H](C#N)C[C@@H]1CCCNC1=O [Compound 89, 1-[(benzyloxy)carbonyl]prolyl-N-{(1S)-1-cyano-2-[(3S)-2-oxopiperidin-3-yl]ethyl}-4-methyl-L-leucinamide]
- EC50 (SARS-CoV-2): > 5000 nM
- IC50 (SARS-CoV-2 3CLP; [1]): 2800 nM

Compound: COc1cccc2[nH]c(C(=O)N[C@@H](CC(C)C)C(=O)N[C@@H](C[C@@H]3CCCNC3=O)C(=O)COC(=O)c3sc(C)nc3C(F)(F)F)cc12 [Compound 21, (3S)-3-{[N-(4-methoxy-1H-indole-2-carbonyl)-L-leucyl]amino}-2-oxo-4-[(3S)-2-oxopiperidin-3-yl]butyl 2-methyl-4-(trifluoromethyl)-1,3-thiazole-5-carboxylate]
- EC50 (SARS-CoV-2): > 5000 nM
- IC50 (SARS-CoV-2 3CLP; [1]): 18 nM

Compound: CC(C)C[C@H](NC(=O)[C@H]1CCCO1)C(=O)N[C@H](C#N)C[C@@H]1CCCNC1=O [Compound 80, N-{(1S)-1-cyano-2-[(3S)-2-oxopiperidin-3-yl]ethyl}-N^2-[(2R)-oxolane-2-carbonyl]-L-leucinamide]
- EC50 (SARS-CoV-2): > 5000 nM
- IC50 (SARS-CoV-2 3CLP; [1]): 710 nM

Compound: CC(C)C[C@H](NC(=O)OCc1ccccc1)C(=O)N[C@H](C#N)C[C@@H]1CCCNC1=O [Compound 66, N^2-[(benzyloxy)carbonyl]-N-{(1S)-1-cyano-2-[(3S)-2-oxopiperidin-3-yl]ethyl}-L-leucinamide]
- EC50 (SARS-CoV-2): > 5000 nM
- IC50 (SARS-CoV-2 3CLP; [1]): 340 nM

Compound: COc1cccc2[nH]c(C(=O)N[C@@H](CC(C)C)C(=O)N[C@@H](C[C@@H]3CCCNC3=O)C(=O)COC(=O)C3(C)OCCCO3)cc12 [Compound 16, (3S)-3-{[N-(4-methoxy-1H-indole-2-carbonyl)-L-leucyl]amino}-2-oxo-4-[(3S)-2-oxopiperidin-3-yl]butyl 2-methyl-1,3-dioxane-2-carboxylate]
- EC50 (SARS-CoV-2): > 5000 nM
- IC50 (SARS-CoV-2 3CLP; [2]): 13 nM

Compound: COc1cccc2[nH]c(C(=O)N[C@@H](CC(C)C)C(=O)N[C@@H](C[C@@H]3CCCNC3=O)C(=O)COC(=O)c3ccccn3)cc12 [Compound 3, (3S)-3-{[N-(4-methoxy-1H-indole-2-carbonyl)-L-leucyl]amino}-2-oxo-4-[(3S)-2-oxopiperidin-3-yl]butyl pyridine-2-carboxylate]
- EC50 (SARS-CoV-2): > 5000 nM
- IC50 (SARS-CoV-2 3CLP; [2]): 130 nM

Compound: CC(C)C[C@H](NC(=O)c1nc(-c2ccccc2)c[nH]1)C(=O)N[C@H](C#N)C[C@@H]1CCCNC1=O [Compound 75, N-{(1S)-1-cyano-2-[(3S)-2-oxopiperidin-3-yl]ethyl}-N^2-(4-phenyl-1H-imidazole-2-carbonyl)-L-leucinamide]
- EC50 (SARS-CoV-2): > 5000 nM
- IC50 (SARS-CoV-2 3CLP; [1]): 160 nM

Compound: CC(C)C[C@H](NC(=O)C1(O)CCCC1)C(=O)N[C@H](C#N)C[C@@H]1CCCNC1=O [Compound 76, N-{(1S)-1-cyano-2-[(3S)-2-oxopiperidin-3-yl]ethyl}-N^2-(1-hydroxycyclopentane-1-carbonyl)-L-leucinamide]
- EC50 (SARS-CoV-2): > 5000 nM
- IC50 (SARS-CoV-2 3CLP; [1]): 950 nM

Compound: COc1cccc2[nH]c(C(=O)N[C@@H](CC(C)C)C(=O)N[C@@H](C[C@@H]3CCCNC3=O)C(=O)COC(=O)C3(C(F)(F)F)CCCCC3)cc12 [Compound 20, (3S)-3-{[N-(4-methoxy-1H-indole-2-carbonyl)-L-leucyl]amino}-2-oxo-4-[(3S)-2-oxopiperidin-3-yl]butyl 1-(trifluoromethyl)cyclohexane-1-carboxylate]
- EC50 (SARS-CoV-2): 710 nM
- IC50 (SARS-CoV-2 3CLP; [1]): 86 nM

Compound: CC(C)C[C@H](NS(=O)(=O)C1CCCCC1)C(=O)N[C@H](C#N)C[C@@H]1CCCNC1=O [Compound 84, N-{(1S)-1-cyano-2-[(3S)-2-oxopiperidin-3-yl]ethyl}-N^2-(cyclohexanesulfonyl)-L-leucinamide]
- EC50 (SARS-CoV-2): > 5000 nM
- IC50 (SARS-CoV-2 3CLP; [1]): 3100 nM
